From ChEMBL document CHEMBL1140022, “Adenosine phosphonate inhibitors of lipid II: alanyl tRNA ligase MurM from Streptococcus pneumoniae” (Bioorg Med Chem Lett, 2007)
The source made the active and inactive calls. The calls are words filed in the database; no cut-off is given here.

Key:
[1] = Inhibition of Streptococcus pneumoniae 159 MurM
Streptococcus pneumoniae [2] = assay: Inhibition of Streptococcus pneumoniae 159 MurM at 1 mM
Streptococcus pneumoniae [3] = assay: Antibacterial activity against penicillin-resistant Streptococcus pneumoniae 159 at 1 mM; format: functional, organism-based

| SMILES | IC50 [1] | Activity (Streptococcus pneumoniae [2]) | Activity (Streptococcus pneumoniae [3]) |
| --- | --- | --- | --- |
| CC(N)P(=O)(O)O[C@@H]1[C@H](O)[C@@H](CO)O[C@H]1n1cnc2c(N)ncnc21 (some centres undefined) | 780 µM |  |  |
| COc1ccc(CC(N)C(=O)N[C@H]2[C@@H](O)[C@H](n3cnc4c(N(C)C)ncnc43)O[C@@H]2CO)cc1 (single isomer, unassigned) |  | inactive |  |
| CC(N)P(=O)(O)O[C@H]1C[C@H](n2cnc3c(N)ncnc32)O[C@@H]1CO (some centres undefined) | 100 µM |  | inactive |
